Experimental data taken from the NIST ThermoML archive (doi:10.1016/j.jct.2005.10.006).
Values joined by “and” are separate entries in the source; they are usually repeats but may differ in a detail not shown here. Equal entries are not always repeated.

Assay: xn = mol fraction of the nth substance listed
Settings: Fluid (supercritical or subcritical phases), Spherical resonator

N#N [nitrogen] + C
Settings | speed of sound
170 K, 124.7 kPa, x1 = 0.5422 | 291.53 m/s
170 K, 150 kPa, x1 = 0.5422 | 291.29 m/s
170 K, 174.8 kPa, x1 = 0.5422 | 291.06 m/s
170 K, 199.8 kPa, x1 = 0.5422 | 290.83 m/s
170 K, 224.8 kPa, x1 = 0.5422 | 290.59 m/s
170 K, 249.8 kPa, x1 = 0.5422 | 290.36 m/s
170 K, 279.7 kPa, x1 = 0.5422 | 290.07 m/s
170 K, 280 kPa, x1 = 0.5422 | 290.07 m/s
170 K, 409.7 kPa, x1 = 0.5422 | 288.85 m/s
170 K, 409.8 kPa, x1 = 0.5422 | 288.85 m/s
170 K, 680.3 kPa, x1 = 0.5422 | 286.28 m/s
170 K, 680.4 kPa, x1 = 0.5422 | 286.28 m/s
170 K, 1293 kPa, x1 = 0.5422 | 280.36 m/s
170 K, 2374 kPa, x1 = 0.5422 | 269.67 m/s and 269.68 m/s
170 K, 3248 kPa, x1 = 0.5422 | 261.01 m/s
170 K, 3249 kPa, x1 = 0.5422 | 260.99 m/s
170 K, 3953 kPa, x1 = 0.5422 | 254.33 m/s
170 K, 3954 kPa, x1 = 0.5422 | 254.32 m/s
170 K, 4555 kPa, x1 = 0.5422 | 249.39 m/s
170 K, 4572 kPa, x1 = 0.5422 | 249.51 m/s
190 K, 311.9 kPa, x1 = 0.5422 | 307.35 m/s
190 K, 457.6 kPa, x1 = 0.5422 | 306.42 m/s
190 K, 762.5 kPa, x1 = 0.5422 | 304.49 m/s
190 K, 1464 kPa, x1 = 0.5422 | 300.13 m/s
190 K, 2748 kPa, x1 = 0.5422 | 292.7 m/s
190 K, 3852 kPa, x1 = 0.5422 | 287.32 m/s
190 K, 4810 kPa, x1 = 0.5422 | 284.03 m/s
190 K, 5716 kPa, x1 = 0.5422 | 282.84 m/s
215 K, 351.4 kPa, x1 = 0.5422 | 327.5 m/s
215 K, 516.2 kPa, x1 = 0.5422 | 326.87 m/s
215 K, 863.4 kPa, x1 = 0.5422 | 325.57 m/s
215 K, 1672 kPa, x1 = 0.5422 | 322.77 m/s
215 K, 3199 kPa, x1 = 0.5422 | 318.49 m/s
215 K, 4573 kPa, x1 = 0.5422 | 316.24 m/s
215 K, 5826 kPa, x1 = 0.5422 | 316.02 m/s
215 K, 7070 kPa, x1 = 0.5422 | 317.96 m/s
220 K, 99.6 kPa, x1 = 0.2 | 363.86 m/s
220 K, 101.5 kPa, x1 = 0.2 | 363.89 m/s
220 K, 200 kPa, x1 = 0.1 | 374.49 m/s
220 K, 249.1 kPa, x1 = 0.2 | 362.81 m/s
220 K, 249.2 kPa, x1 = 0.2 | 362.81 m/s
220 K, 249.5 kPa, x1 = 0.2 | 362.85 m/s
220 K, 498.6 kPa, x1 = 0.2 | 361.06 m/s
220 K, 498.8 kPa, x1 = 0.2 | 361.05 m/s
220 K, 499.1 kPa, x1 = 0.2 | 361.09 m/s
220 K, 501.4 kPa, x1 = 0.1 | 371.96 m/s
220 K, 998.6 kPa, x1 = 0.2 | 357.56 m/s
220 K, 999.3 kPa, x1 = 0.2 | 357.56 m/s
220 K, 1001 kPa, x1 = 0.1 | 367.77 m/s
220 K, 1003 kPa, x1 = 0.2 | 357.57 m/s
220 K, 2006 kPa, x1 = 0.2 | 350.72 m/s
220 K, 2007 kPa, x1 = 0.1 | 359.38 m/s
220 K, 2008 kPa, x1 = 0.2 | 350.73 m/s
220 K, 3014 kPa, x1 = 0.2 | 344.27 m/s
220 K, 3016 kPa, x1 = 0.2 | 344.28 m/s
220 K, 3018 kPa, x1 = 0.1 | 351.21 m/s
220 K, 4002 kPa, x1 = 0.2 | 338.63 m/s
220 K, 4034 kPa, x1 = 0.2 | 338.48 m/s
220 K, 4040 kPa, x1 = 0.1 | 343.53 m/s
220 K, 5057 kPa, x1 = 0.2 | 333.84 m/s
220 K, 6079 kPa, x1 = 0.2 | 331.09 m/s
220 K, 6099 kPa, x1 = 0.1 | 332.63 m/s
220 K, 7000 kPa, x1 = 0.2 | 331.07 m/s
220 K, 7981 kPa, x1 = 0.2 | 334.7 m/s
220 K, 8215 kPa, x1 = 0.1 | 339.23 m/s
220 K, 9000 kPa, x1 = 0.2 | 343.57 m/s
220 K, 9974 kPa, x1 = 0.2 | 357.39 m/s
220 K, 10421 kPa, x1 = 0.1 | 383.6 m/s
220 K, 10996 kPa, x1 = 0.2 | 376.87 m/s
220 K, 12068 kPa, x1 = 0.2 | 401.11 m/s
220 K, 12996 kPa, x1 = 0.2 | 423.71 m/s
220 K, 14014 kPa, x1 = 0.2 | 449.03 m/s
220 K, 14274 kPa, x1 = 0.1 | 498.94 m/s
220 K, 14891 kPa, x1 = 0.2 | 470.66 m/s
220 K, 16024 kPa, x1 = 0.2 | 497.89 m/s
220 K, 16645 kPa, x1 = 0.1 | 562.65 m/s
220 K, 17031 kPa, x1 = 0.2 | 521.17 m/s
220 K, 18043 kPa, x1 = 0.1 | 596.39 m/s
220 K, 18088 kPa, x1 = 0.2 | 544.6 m/s
220 K, 19087 kPa, x1 = 0.2 | 565.86 m/s
220 K, 19556 kPa, x1 = 0.2 | 575.49 m/s
220 K, 19985 kPa, x1 = 0.1 | 639.27 m/s
220 K, 25037 kPa, x1 = 0.2 | 675.84 m/s
220 K, 30201 kPa, x1 = 0.2 | 753.84 m/s
250 K, 99.6 kPa, x1 = 0.2 | 387.32 m/s
250 K, 105 kPa, x1 = 0.2 | 387.33 m/s
250 K, 199.6 kPa, x1 = 0.1 | 398.92 m/s
250 K, 249.1 kPa, x1 = 0.2 | 386.69 m/s
250 K, 249.5 kPa, x1 = 0.2 | 386.7 m/s
250 K, 405.3 kPa, x1 = 0.5422 | 353.38 m/s
250 K, 498.3 kPa, x1 = 0.2 | 385.62 m/s
250 K, 499.1 kPa, x1 = 0.1 | 397.32 m/s
250 K, 499.1 kPa, x1 = 0.2 | 385.63 m/s
250 K, 596.4 kPa, x1 = 0.5422 | 353.08 m/s
250 K, 998.2 kPa, x1 = 0.2 | 383.53 m/s
250 K, 998.9 kPa, x1 = 0.2 | 383.54 m/s
250 K, 999.8 kPa, x1 = 0.1 | 394.71 m/s
250 K, 1001 kPa, x1 = 0.5422 | 352.48 m/s
250 K, 1955 kPa, x1 = 0.5422 | 351.35 m/s
250 K, 2002 kPa, x1 = 0.2 | 379.64 m/s
250 K, 2004 kPa, x1 = 0.1 | 389.75 m/s
250 K, 2005 kPa, x1 = 0.2 | 379.64 m/s
250 K, 2974 kPa, x1 = 0.1 | 385.4 m/s
250 K, 3002 kPa, x1 = 0.2 | 376.26 m/s
250 K, 3014 kPa, x1 = 0.2 | 376.24 m/s
250 K, 3805 kPa, x1 = 0.5422 | 350.46 m/s
250 K, 4021 kPa, x1 = 0.2 | 373.48 m/s
250 K, 4026 kPa, x1 = 0.2 | 373.48 m/s
250 K, 4027 kPa, x1 = 0.1 | 381.43 m/s
250 K, 4989 kPa, x1 = 0.2 | 371.62 m/s
250 K, 5030 kPa, x1 = 0.2 | 371.55 m/s
250 K, 5041 kPa, x1 = 0.1 | 378.44 m/s
250 K, 5536 kPa, x1 = 0.5422 | 351.48 m/s
250 K, 5903 kPa, x1 = 0.2 | 370.69 m/s
250 K, 6000 kPa, x1 = 0.2 | 370.66 m/s
250 K, 6066 kPa, x1 = 0.1 | 376.58 m/s
250 K, 7002 kPa, x1 = 0.2 | 370.93 m/s
250 K, 7089 kPa, x1 = 0.1 | 376.21 m/s
250 K, 7176 kPa, x1 = 0.5422 | 354.43 m/s
250 K, 8018 kPa, x1 = 0.2 | 372.66 m/s
250 K, 8117 kPa, x1 = 0.1 | 377.7 m/s
250 K, 8849 kPa, x1 = 0.5422 | 359.54 m/s
250 K, 8859 kPa, x1 = 0.5422 | 359.5 m/s
250 K, 9001 kPa, x1 = 0.2 | 375.95 m/s
250 K, 9155 kPa, x1 = 0.1 | 381.49 m/s
250 K, 10175 kPa, x1 = 0.2 | 382.17 m/s
250 K, 10204 kPa, x1 = 0.1 | 387.94 m/s
250 K, 11195 kPa, x1 = 0.2 | 389.7 m/s
250 K, 11238 kPa, x1 = 0.1 | 397.06 m/s
250 K, 12284 kPa, x1 = 0.1 | 408.99 m/s
250 K, 13078 kPa, x1 = 0.2 | 408.65 m/s
250 K, 13320 kPa, x1 = 0.1 | 423.21 m/s
250 K, 14003 kPa, x1 = 0.2 | 420.05 m/s
250 K, 14166 kPa, x1 = 0.1 | 436.28 m/s
250 K, 15044 kPa, x1 = 0.1 | 450.92 m/s
250 K, 15316 kPa, x1 = 0.2 | 438.11 m/s
250 K, 16059 kPa, x1 = 0.2 | 449.07 m/s
250 K, 16075 kPa, x1 = 0.1 | 469.1 m/s
250 K, 17054 kPa, x1 = 0.2 | 464.35 m/s
250 K, 17093 kPa, x1 = 0.1 | 487.71 m/s
250 K, 18084 kPa, x1 = 0.1 | 506.09 m/s
250 K, 18089 kPa, x1 = 0.2 | 480.72 m/s
250 K, 18990 kPa, x1 = 0.1 | 522.94 m/s
250 K, 19031 kPa, x1 = 0.2 | 495.86 m/s
250 K, 19850 kPa, x1 = 0.2 | 509.09 m/s
250 K, 19992 kPa, x1 = 0.1 | 541.47 m/s
250 K, 25516 kPa, x1 = 0.1 | 637.9 m/s
